Results reported in patent US12729404B2, “Method and kit for testing drug hypersensitivity reactions caused by sulfonamide derivative-based antiepileptic drug and use of the kit” (CHANG GUNG MEMORIAL HOSPITAL, LINKOU, priority 2020, dated 2026).

Assays:
Details in all cases: in vivo
HLA-B*51:01 or B*51:02 = system: HLA-B*51:01 or B*51:02
HLA-B*13:01 [1] = target: T1, HLA-B*13:01 (Homo sapiens, UniProt P01889, A65T/A93T/A95T/D138N/D201E/D98Y/E176V/E204Q/E69M/E70A/G107R/K202T/L105A/L119I/N104T/N87E/Q94N/R106L/R155S/R169L/R180L/S101N/S121R/S35A/S48T/T118I/V127L/V36M/Y140L/Y91S)
HLA-B*13:01 [2] = target: T1, HLA-B*13:01; remark: listed apart in the source

Cases N (allele carriers / patients) (HLA-B*51:01 or B*51:02): 4/7 | OR (HLA-B*51:01 or B*51:02): 8.3 | Cases N (allele carriers / patients) (HLA-B*13:01 [1]): 5/7 | OR (HLA-B*13:01 [1]): 19.3 | DHR (%) carrying the allele (HLA-B*13:01 [2]): 100% | DHR N (allele carriers / patients) (HLA-B*13:01 [2]): 3/3 | Sensitivity (HLA-B*13:01 [2]): 100.00% | Specificity (HLA-B*13:01 [2]): 88.52%
Compound: NS(=O)(=O)Cc1noc2ccccc12 [zonisamide]
